We go through one molecule from patent publication US11771735B2, “Composition for improving or preventing nonalcoholic fatty liver” (KOHJIN LIFE SCIENCES CO., LTD., priority 2015, dated 2023).

Experiment [1] relates to Mice (C57/B6J) fed with high-fat food. The conditions noted are these: 20 weeks old. The source says: Mice (C57/B6J, 8 weeks old male) were divided into 4 groups (5 animals each), and the first group (DB) was freely fed with ordinary food (CertifiedDiet “MF” manufactured by Oriental Yeast Co., ltd.). The second group (HFD) was freely fed with high-fat food (High Fat Diet 32, manufactured by CLEA Japan, Inc.), […].
When the mouse was 20 weeks old, the body weight, the liver weight, the serum aspartate aminotransferase (AST), the alanine aminotransferase (ALT), the serum triglyceride (TG), the free fatty acid value (FFA) and the total cholesterol value (T-cho) were measured.

The subject of experiment [2] is subjects who had NAFLD in 31 IU/L or more of ALT. The conditions noted are these: Case IDs 1 to 9 (group affected); at least one week after initiation; oral 300 mg per day.
Setting [3] is: HFD6 (6 mg/kg/day) and HFD60 (60 mg/kg/day) groups in comparison to HFD group.
Setting [4] is: high-fat food mice, glutathione 6 and 60 mg/kg/day in water.

As for `N[C@@H](CCC(=O)N[C@@H](CS)C(=O)NCC(=O)O)C(=O)O` [glutathione], in experiment [1] (setting [3]), the “serum ALT” value was “significant decrease”, the “serum AST” value is “significant decrease”, the “serum FFA (free fatty acid value)” value is on record as “significant decrease” and the “serum T-cho (total cholesterol value)” value is “significant decrease”. In addition, in experiment [1] (setting [3]), the “serum TG (triglyceride value)” value is “significant decrease”. Also, in experiment [1] (setting [4]), the liver weight result was “the liver weight decreased dependently on the concentration” and the “ratio of liver weight/body weight” value is given as “decrease of the body weight ratio was also recognized”. Also, the body weight result in experiment [1] (high-fat food mice, glutathione 6 or 60 mg/kg/day in water) is reported as “decrease of the body weight was recognized”. Also, the “improvement of ALT after the administration versus before administration (0 wk)” value in experiment [2] is given as no less than 20%.
